The IC50 is the concentration at which inhibition is half-maximal. By inhibition is commonly meant the relative decrease from the control value, in per cent.

Series [1] deals with HUVEC. The experiment in a line: Selectivity ratio of IC50 for quesicent HUVECs to IC50 for activated HUVECs. The class given is functional, Homo sapiens.
In series [2] the test system is HUVEC. The experiment in a line: Antiangiogenic activity in quesicent HUVECs assessed as disruption of preformed capillaries at 1 uM after 4 hrs by light microscopic analysis relative to control. To be noted: human. The class given is cell-based.
In series [3] the test system is HUVEC. Description: Antiproliferative activity against activated HUVECs after 48 hrs by CCK-8 assay. The class given is functional, cell-based. To be noted: Homo sapiens. A general note: Formazan colour is commonly taken as a measure of viable cells.
In the next series the test system is HT-1080. Description: Cytotoxicity against human HT1080 cells after 72 hrs by CCK-8 assay. The class given is functional, cell-based. To be noted: HT-1080, 72 h.
In series [4] the test system is A549. The experiment in a line: Cell cycle arrest in human A549 cells assessed as accumulation at G2/M phase at 0.1 uM after 24 hrs by propidium iodide staining-based FACS flow cytometric analysis (reference value: 8.52%). The class given is functional. (In general: A flow cytometer gives signals particle by particle.)
In the next series the test system is HeLa. The experiment in a line: Cytotoxicity against human HeLa cells after 72 hrs by CCK-8 assay. The class given is functional, cell-based.
The test system of series [5] is A549. The experiment in a line: Antiangiogenic activity in human A549 cells xenografted in BALB/c nu/nu mouse assessed as disruption of tumor vasculature at 100 mg/kg, ip after 16 hrs by Hoechst 33342 staining-based Zeiss microscopic analysis relative to control. The class given is functional. To be noted: route intraperitoneal.
The test system of series [6] is A549. Description: Cell cycle arrest in human A549 cells assessed as accumulation at S phase at 0.1 uM after 24 hrs by propidium iodide staining-based FACS flow cytometric analysis (reference value: 32.56%). The class given is functional.
Series [7] concerns HUVEC. Description: Antiangiogenic activity in quesicent HUVECs assessed as disruption of preformed capillaries at 0.1 uM after 4 hrs by light microscopic analysis (reference value: 11%). To be noted: human. The class given is cell-based.
For another series, the target named is Tubulin (Homo sapiens) (UniProt P68371+Q9H4B7+P0DPH7+P68366+Q13509+Q71U36+P04350+Q3ZCM7+P07437+P68363+Q9BQE3+Q6PEY2+Q13885+Q9BVA1+Q9BUF5). The experiment in a line: Inhibition of tubulin polymerization in human A549 cells at 0.1 uM after 6 hrs by Western blotting analysis. The class given is cell-based. In general terms: Immunoblotting shows a protein as a band on a membrane.

In series [8] the test system is A549. Description: Antimitotic activity in human A549 cells assessed as disruption of microtubule organization at 0.05 uM after 16 hrs by DAPI staining-based Zeiss microscopic analysis relative to control. The class given is functional, cell-based.
Series [9] has as its system HUVEC. Description: Antiproliferative activity against quesicent HUVECs after 48 hrs by CCK-8 assay. The class given is cell-based. To be noted: Homo sapiens.
The subject of series [10] is A549. Description: Cell cycle arrest in human A549 cells assessed as accumulation at G1 phase at 0.1 uM after 24 hrs by propidium iodide staining-based FACS flow cytometric analysis (reference value: 53.57%). The class given is functional.
Series [11] has as its system A549. The experiment in a line: Cytotoxicity against human A549 cells after 72 hrs by CCK-8 assay. To be noted: A549, 72 h. The class given is functional, cell-based.
Series [12] concerns HUVEC. The experiment in a line: Antiangiogenic activity in activated HUVECs assessed as inhibition of capillary tube formation at 0.1 uM after 22 hrs by light microscopic analysis. The class given is functional, cell-based. To be noted: Homo sapiens.
Another series has as its system HepG2. Description: Cytotoxicity against human HepG2 cells after 72 hrs by CCK-8 assay. The class given is functional, cell-based. To be noted: HepG2, 72 h.
The subject of series [13] is A549. Description: Antimitotic activity in human A549 cells assessed as disruption of microtubule organization at 0.1 uM after 16 hrs by DAPI staining-based Zeiss microscopic analysis relative to control. The class given is functional, cell-based.
The subject of series [14] is A549. The experiment in a line: Antimitotic activity in human A549 cells assessed as disruption of microtubule organization at 0.01 uM after 16 hrs by DAPI staining-based Zeiss microscopic analysis relative to control. The class given is functional, cell-based.

Active and inactive are the calls of the source. The calls are words filed in the database; no cut-off is given here. Some results are limits rather than exact numbers.

On to `COc1ccc(C(=O)c2cn(C)c3c(OC)c(OC)c(OC)cc23)cc1O`, for which the “Ratio IC50” value in the series with HUVEC [1] is 207. Further, the Activity with HUVEC [2] turned out to be 49%; in the series on A549 [4] it was 78.85%; in the series with A549 [5] it was 68%; in the series with A549 [6], 14.34%; in the series with HUVEC [7], 13%; in the series with A549 [10] it was 5.07%. For the same molecule, the IC50 was determined as 25.3 nM in the series on HUVEC [3]; 26.3 nM in the series on HT-1080; 125 nM in the series on HeLa; 5240 nM in the series with HUVEC [9] (read-out: IC50); 28.3 nM in the series with A549 [11]; 44.5 nM with HepG2. Further, the inhibition at Tubulin (Homo sapiens) amounted to 27%. Besides, in the series on A549 [8], the outcome was Active. In addition, the inhibition entry in the series with HUVEC [12] is “Active”.
Turning to `COc1cc2c(c(OC)c1OC)-c1ccc(OC)c(=O)cc1[C@@H](NC(C)=O)CC2` [COLCHICINE], the IC50 in the series on HUVEC [3] came out at 8.91 nM; in the series on HT-1080 it was 15.4 nM; in the series with HeLa it was 37.4 nM; with HUVEC [9] it was 7.6 nM; in the series on HepG2, 46.7 nM. For the same molecule, in the series on HUVEC [7], the Activity is given as 56%. Also, the inhibition entry in the series on HUVEC [12] was “Active”.
Turning to `COc1ccc(Cn2ccc3cc(OC)c(OC)c(OC)c32)cc1O`, in the series with A549 [11], inhibition was half-maximal at 3190 nM (IC50).
Molecule `COc1cccc(C(=O)c2c[nH]c3c(OC)c(OC)c(OC)cc23)c1` gave an IC50 in the series on A549 [11] of more than 10000 nM.
In the series on A549 [11], `COc1ccc(C(=O)c2cn(C(C)=O)c3c(OC)c(OC)c(OC)cc23)cc1` returned an IC50 of 5270 nM.
In the series on A549 [11], `COc1ccc(C(=O)c2c[nH]c3c(OC)c(OC)c(OC)cc23)cc1F` showed a half-maximal inhibitory concentration (IC50) of more than 10000 nM.
The same measure, in the same setting: the figure for `COc1ccc(C(=O)c2c[nH]c3c(OC)c(OC)c(OC)cc23)cc1` is 8290 nM; for `COc1cc(Cc2c[nH]c3c(OC)c(OC)c(OC)cc23)cc(OC)c1OC` it is more than 10000 nM; for `COc1ccc(Cn2ccc3cc(OC)c(OC)c(OC)c32)cc1` it is 3090 nM.
Same read-out and setting: the value for `COc1ccc(C(=O)n2ccc3cc(OC)c(OC)c(OC)c32)cc1O` was more than 10000 nM; that for `COc1ccc(C(=O)c2c[nH]c3c(OC)c(OC)c(OC)cc23)cc1Cl` was more than 10000 nM.
With `COc1ccccc1C(=O)c1c[nH]c2c(OC)c(OC)c(OC)cc12`, the IC50 in the series with A549 [11] was more than 10000 nM.
Same read-out and setting: the value for `COc1ccc(C(=O)c2c[nH]c3c(OC)c(OC)c(OC)cc23)cc1I` was more than 10000 nM.
Same read-out and setting: the value for `COc1ccc(C(=O)c2cn(S(=O)(=O)c3ccccc3)c3c(OC)c(OC)c(OC)cc23)cc1` was more than 10000 nM; that for `COc1ccc(Cc2c[nH]c3c(OC)c(OC)c(OC)cc23)cc1` was 2990 nM.
For `COc1ccc(C(=O)c2c[nH]c3c(OC)c(OC)c(OC)cc23)cc1O`, the “Ratio IC50” value in the series with HUVEC [1] turned out to be 9.1. The values for the 50% inhibitory concentration (IC50) in the series with HUVEC [3], in the series on HUVEC [9] (read-out: IC50) and with A549 [11] were 327 nM, 2980 nM and 166 nM, respectively.
As for `COc1ccc(C(=O)c2c(C)n(C)c3c(OC)c(OC)c(OC)cc23)cc1O`, the “Ratio IC50” value in the series on HUVEC [1] came to 3.68. In addition, the 50% inhibitory concentration (IC50) in the series with HUVEC [3] was 43.7 nM; with HT-1080, 574 nM; with HeLa, 632 nM; with HUVEC [9] (read-out: IC50), 161 nM; with A549 [11], 108 nM; with HepG2 it was 91.6 nM.
`COc1ccc(Cc2c[nH]c3c(OC)c(OC)c(OC)cc23)cc1O`: in the series on HUVEC [1], the “Ratio IC50” value was 10.8. Besides, the IC50 amounted to 228 nM in the series on HUVEC [3]; 118 nM in the series on HT-1080; 149 nM in the series on HeLa; 2450 nM with HUVEC [9] (read-out: IC50); 118 nM in the series with A549 [11]; 72.2 nM with HepG2.
On to `COc1ccc(Cc2cn(C)c3c(OC)c(OC)c(OC)cc23)cc1O`, for which the Activity with HUVEC [2] amounted to 51%; with A549 [4], 80.48%; with A549 [6] it was 14.7%; in the series with HUVEC [7], 10%; with A549 [10] it was 3.9%. Moreover, the 50% inhibitory concentration (IC50) was 8.9 nM in the series on HUVEC [3]; 42.2 nM with HT-1080; 40.7 nM in the series with HeLa; 6300 nM in the series on HUVEC [9] (read-out: IC50); 71.7 nM in the series on A549 [11]; 45.5 nM in the series with HepG2. Also, the result in the series on A549 [13] was Active. Further, the inhibition on Tubulin (Homo sapiens) turned out to be 31%. Besides, in the series on HUVEC [12], the inhibition result is “Active”.
`COc1ccc(C(=O)n2ccc3cc(OC)c(OC)c(OC)c32)cc1`: the IC50 in the series with A549 [11] was more than 10000 nM.
Still for that read-out and setting: the figure for `COc1cc2c(C(=O)c3ccc(C)cc3)c[nH]c2c(OC)c1OC` is more than 10000 nM; for `COc1ccc(Cc2cn(C)c3c(OC)c(OC)c(OC)cc23)cc1F` it is 144 nM; for `COc1cc(C(=O)c2c[nH]c3c(OC)c(OC)c(OC)cc23)cc(OC)c1OC` it is more than 10000 nM.
Same read-out and setting: the value for `COc1ccc(C(=O)c2c(C)[nH]c3c(OC)c(OC)c(OC)cc23)cc1O` was 2620 nM; that for `COc1ccc(Cc2c[nH]c3c(OC)c(OC)c(OC)cc23)cc1F` was 387 nM.
Take `COc1ccc(C(=O)c2cn(C)c3c(OC)c(OC)c(OC)cc23)cc1F`: the “Ratio IC50” value with HUVEC [1] stood at 1.56. The IC50 in the series on HUVEC [3] was determined as 96.4 nM; in the series on HUVEC [9] (read-out: IC50), 151 nM; in the series on A549 [11], 146 nM.
`COc1ccc(C(=O)c2cn(C)c3c(OC)c(OC)c(OC)cc23)cc1` yielded a 50% inhibitory concentration (IC50) in the series on A549 [11] of 482 nM.
In the case of `COc1ccc(/C=C\c2cc(OC)c(OC)c(OC)c2)cc1O` [COMBRETASTATIN A4], the “Ratio IC50” value in the series with HUVEC [1] is listed as 2.66. In addition, the IC50 stood at 3.34 nM in the series with HUVEC [3], 8.9 nM with HUVEC [9] (read-out: IC50) and 3.64 nM in the series on A549 [11]. Also, the outcome in the series on A549 [14] was Active. Besides, in the series with A549 [5], the Activity came to 72%.

The record behind these values is ChEMBL document CHEMBL2331442, “Synthesis and structure-activity relationships of N-methyl-5,6,7-trimethoxylindoles as novel antimitotic and vascular disrupting agents” (J Med Chem, 2013).
